According to ChEMBL document CHEMBL3045122, “Synthesis, in vitro antimicrobial, antiproliferative, and QSAR studies of N-(substituted phenyl)-2/4-(1H-indol-3-ylazo)-benzamides” (Med Chem Res, 2013):

What was measured:
[1] = system: P388; assay: Ratio of 5-Fluorouracil IC50 to compound IC50 for Mus musculus (mouse) P388 cells; format: functional
[2] = system: P388; assay: Cytotoxicity against Mus musculus (mouse) P388 cells assessed as growth inhibition after 72 hr by MTT assay; format: functional, cell-based
[3] = system: HCT-116; assay: Cytotoxicity against Homo sapiens (human) HCT116 cells assessed as growth inhibition after 72 hr by MTT assay; format: functional, cell-based
[4] = system: Aspergillus niger; assay: Ratio of MFC to MIC for Aspergillus niger; format: functional
[5] = system: MCF7; assay: Cytotoxicity against Homo sapiens (human) MCF7 cells assessed as growth inhibition after 72 hr by MTT assay; format: functional, cell-based
[6] = system: Candida albicans; assay: Ratio of MFC to MIC for Candida albicans; format: functional
[7] = system: Escherichia coli; assay: Ratio of MBC to MIC for Escherichia coli; format: functional
[8] = system: Bacillus subtilis; assay: Ratio of MBC to MIC for Bacillus subtilis; format: functional
[9] = system: Staphylococcus aureus; assay: Ratio of MBC to MIC for Staphylococcus aureus; format: functional
[10] = system: Aspergillus niger; assay: Fungicidal activity against Aspergillus niger; format: functional
[11] = system: Candida albicans; assay: Fungicidal activity against Candida albicans; format: functional
[12] = system: Escherichia coli; assay: Bactericidal activity against Escherichia coli; format: functional
[13] = system: Bacillus subtilis; assay: Bactericidal activity against Bacillus subtilis; format: functional
[14] = system: Staphylococcus aureus; assay: Bactericidal activity against Staphylococcus aureus; format: functional
[15] = system: Aspergillus niger; assay: Antifungal activity against Aspergillus niger assessed as growth inhibition after 7 days by tube dilution method; format: functional
[16] = system: Escherichia coli; assay: Antibacterial activity against Escherichia coli assessed as growth inhibition after 24 hr by tube dilution method; format: functional
[17] = system: Candida albicans; assay: Antifungal activity against Candida albicans assessed as growth inhibition after 48 hr by tube dilution method; format: functional
[18] = system: Bacillus subtilis; assay: Antibacterial activity against Bacillus subtilis assessed as growth inhibition after 24 hr by tube dilution method; format: functional
[19] = system: Staphylococcus aureus; assay: Antibacterial activity against Staphylococcus aureus assessed as growth inhibition after 24 hr by tube dilution method; format: functional
[20] = system: HCT-116; assay: Ratio of 5-Fluorouracil IC50 to compound IC50 for Homo sapiens (human) HCT116 cells; format: functional

| Structure (SMILES) | Ratio IC50 [1] | IC50 [2] | IC50 [3] | Ratio [4] | IC50 [5] | Ratio [6] | Ratio [7] | Ratio [8] | Ratio [9] | MFC [10] | MFC [11] | MBC [12] | MBC [13] | MBC [14] | -logMIC [15] | -logMIC [16] | -logMIC [17] | -logMIC [18] | -logMIC [19] | Ratio IC50 [20] |
| --- | --- | --- | --- | --- | --- | --- | --- | --- | --- | --- | --- | --- | --- | --- | --- | --- | --- | --- | --- | --- |
| Cc1cccc(NC(=O)c2ccc(/N=N\c3c[nH]c4ccccc34)cc2)c1 | 73 | 0.0003 uM/ml | 0.0989 uM/ml | 3 | 0.0734 uM/ml | 3 | 3 | 3 | 3 | 0.04 uM/ml | 0.04 uM/ml | >0.14 uM/ml | >0.14 uM/ml | >0.14 uM/ml | 1.45 | 1.75 | 1.45 | 1.75 | 1.45 |  |
| O=C(Nc1cccc([N+](=O)[O-])c1)c1ccc(/N=N\c2c[nH]c3ccccc23)cc1 |  | 0.0519 uM/ml | 0.0701 uM/ml | 3 | 0.0519 uM/ml | 3 | 3 | 3 | 3 | 0.03 uM/ml | 0.06 uM/ml | >0.13 uM/ml | >0.13 uM/ml | >0.13 uM/ml | 1.49 | 1.49 | 1.49 | 1.79 | 1.19 |  |
| Cc1ccc(NC(=O)c2ccc(/N=N\c3c[nH]c4ccccc34)cc2)c(C)c1 |  | 0.1902 uM/ml | 0.0761 uM/ml | 3 | 0.087 uM/ml | 3 | 3 | 3 | 3 | 0.03 uM/ml | 0.14 uM/ml | >0.14 uM/ml | >0.14 uM/ml | >0.14 uM/ml | 1.47 | 1.47 | 1.47 | 1.47 | 1.47 |  |
| O=C(Nc1cccc(Cl)c1)c1ccc(/N=N\c2c[nH]c3ccccc23)cc1 |  | 0.2667 uM/ml | 0.08 uM/ml | 3 | 0.0827 uM/ml | 3 | 3 | 3 | 3 | 0.03 uM/ml | >0.13 uM/ml | >0.13 uM/ml | >0.13 uM/ml | >0.13 uM/ml | 1.48 | 1.48 | 1.48 | 1.48 | 1.48 |  |
| O=C(Nc1ccccc1F)c1ccc(/N=N\c2c[nH]c3ccccc23)cc1 |  | 0.1061 uM/ml | 0.5587 uM/ml | 3 | 0.0838 uM/ml | 3 | 3 | 3 | 3 | 0.03 uM/ml | 0.07 uM/ml | >0.14 uM/ml | >0.14 uM/ml | >0.14 uM/ml | 1.46 | 1.46 | 1.46 | 1.46 | 1.46 |  |
| O=C(Nc1ccc([N+](=O)[O-])cc1)c1ccc(/N=N\c2c[nH]c3ccccc23)cc1 |  | 0.0112 uM/ml | 0.1558 uM/ml | 3 | 0.0545 uM/ml | 3 | 3 | 3 | 3 | 0.03 uM/ml | 0.13 uM/ml | >0.13 uM/ml | >0.13 uM/ml | >0.13 uM/ml | 1.49 | 1.79 | 1.49 | 1.49 | 1.79 |  |
| O=C(Nc1ccc(Cl)cc1)c1ccc(/N=N\c2c[nH]c3ccccc23)cc1 |  | 0.08 uM/ml | 0.1867 uM/ml | 3 | 0.1067 uM/ml | 3 | 3 | 3 | 3 | 0.13 uM/ml | >0.13 uM/ml | >0.13 uM/ml | >0.13 uM/ml | >0.13 uM/ml | 1.48 | 1.48 | 1.48 | 1.48 | 1.48 |  |
| O=C(Nc1ccccc1)c1ccc(/N=N\c2c[nH]c3ccccc23)cc1 |  | Not Active | 0.1029 uM/ml | 3 | 0.1471 uM/ml | 3 | 3 | 3 | 3 | 0.07 uM/ml | >0.15 uM/ml | >0.15 uM/ml | >0.15 uM/ml | >0.15 uM/ml | 1.44 | 1.44 | 1.44 | 1.44 | 1.44 |  |
| Cc1ccc(NC(=O)c2ccc(/N=N\c3c[nH]c4ccccc34)cc2)cc1 | 73 | 0.0003 uM/ml | 0.0254 uM/ml | 3 | 0.0424 uM/ml | 3 | 3 | 3 | 3 | 0.04 uM/ml | >0.14 uM/ml | >0.14 uM/ml | >0.14 uM/ml | >0.14 uM/ml | 1.45 | 1.45 | 1.45 | 1.45 | 1.45 | 1.8 |
| Cc1cccc(NC(=O)c2ccc(/N=N\c3c[nH]c4ccccc34)cc2)c1C |  | 0.0516 uM/ml | 0.2717 uM/ml | 3 | 0.106 uM/ml | 3 | 3 | 3 | 3 | 0.03 uM/ml | >0.14 uM/ml | >0.14 uM/ml | >0.14 uM/ml | >0.14 uM/ml | 1.47 | 1.47 | 1.47 | 1.47 | 1.77 |  |
| O=C(Nc1ccccc1[N+](=O)[O-])c1ccc(/N=N\c2c[nH]c3ccccc23)cc1 |  | 0.0779 uM/ml | 0.2078 uM/ml | 3 | 0.1013 uM/ml | 3 | 3 | 3 | 3 | 0.03 uM/ml | >0.13 uM/ml | >0.13 uM/ml | >0.13 uM/ml | >0.13 uM/ml | 1.49 | 1.49 | 1.49 | 1.79 | 1.49 |  |
| O=C(Nc1ccccc1Cl)c1ccc(/N=N\c2c[nH]c3ccccc23)cc1 |  | Not Active | 0.12 uM/ml | 3 | 0.112 uM/ml | 3 | 3 | 3 | 3 | 0.03 uM/ml | >0.13 uM/ml | >0.13 uM/ml | >0.13 uM/ml | >0.13 uM/ml | 1.48 | 1.78 | 1.48 | 1.48 | 1.18 |  |
